The source of these data is patent US10420813B2, “Competitive inhibitors of invariant chain expression and/or ectopic clip binding” (Regents of the University of Colorado, a body corporate, priority 2007, dated 2019).

For assay [1] the following is noted: background statement; cited from earlier work.
Assay [2] relates to Daudi cells. Nature of the assay: Binding of biotinylated peptide to cells (Streptavidin-PE). The format is cell-based, human. As to conditions: 50 microMolar. How it is done:
(§1) The ability of synthetic peptides to compete with binding of CLIP peptides and result in the cell surface expression of CD1d was determined.
(§2) Results: The results shown in FIG. 5 are expressed in histogram analyses. The Y axis represents cell number of the 5000 live cells versus the X axis which is a reflection of relative Fitc fluorescence versus Streptavidin-PE (eBioscience, Cat. #12-4317) that will bind with high affinity to cell-bound biotinylated peptides. The distance between the histogram from the isotype control staining versus the histogram reflecting the specific stain and is a measure of level of cell surface CD1d.
(§3) Cell Culture Conditions: The Raji and Daudi cell lines were purchased from American Type Culture Collection, were thawed, and grown in RPMI 1640 medium supplemented with standard supplements, including 10% fetal calf serum, gentamycin, penicillin, streptomycin, sodium pyruvate, HEPES buffer, 1-glutamine, and 2-ME.
(§4) Protocol: Cells were plated into a 12 well plate with 3 mls total volume containing approximately 1.5×10^6/well for Daudi cells and 3.0×10^6/well for Raji cells. Treatment groups included no treatment as control and biotinylated […] (SEQ ID NO: 2) (also referred to as MKN 5) at 50 microMolar final concentration based on the reported molarity of the synthesized compounds.
(§5) The cells were incubated at 37° C. in an atmosphere containing 5% CO2 and approximately 92% humidity. The cells were incubated for 4 and 24 hours. At each time point, the cells from that experimental time were harvested and stained for flow cytometric analysis of cell surface expression of CD1d by staining with PE anti-human CD1d (eBioscience, clone 51.5, cat. #12-00016-71).
(§6) Harvested cells were stained using standard staining procedure that called for a 1:100 dilution of PE anti-CD1d. Following staining on ice for 25 minutes, cells were washed with PBS/FCS and resuspended in 100 microliters and added to staining tubes containing 400 microliters of PBS. Samples were acquired and analyzed on a Coulter Excel Flow Cytometer.

The test system of assay [3] is Raji cells. The description is as above. The format is cell-based, human. As to conditions: 50 microMolar. How it is done:
as §1, §2, §3, §4, §5, §6

Assay [4] concerns cell surface CD1d on Raji cells. The assay is described as follows: Cell surface expression of CD1d. The format is cell-based, human. The following applies: 50 microMolar. Here is the method: as §1, §2, §3, §4, §5, §6
Assay [5] relates to cell surface CD1d on Daudi cells. Nature of the assay: Cell surface expression of CD1d. The format is cell-based, human. The following applies: 50 microMolar. Here is the method:
as §1, §2, §3, §4, §5, §6

The test system of assay [6] is cell surface CLIP on Raji cells. The assay is described as follows: Cell surface CLIP by flow cytometry. As to conditions: 24 and 48 hours. It is filed as cell-based, human. Here is the method: (§7) Kinetics of CLIP displacement from the surface of model B cells lines (Daudi and Raji) in response to thymic nuclear protein mixture was determined.
(§8) Results were expressed in histogram analyses (FIG. 3). The Y axis represents cell number of the 5000 live cells versus the X axis which is a reflection of relative Fitc fluorescence. The distance between the histogram from the isotype control staining versus the histogram reflecting the specific stain is a measure of level of cell surface CLIP on a population of live Raji or Daudi cells as indicated. […]
(§9) Harvested cells were stained using standard staining procedure that called for a 1:100 dilution of Fitc-anti-human CLIP or isotype control. […] Samples were acquired and analyzed on a Coulter Excel Flow Cytometer.
(§10) The ability of MKN1 (bioCLIP) to alter cell surface CLIP and CD74 levels was determined using Raji or Daudi cells.
(§11) Data were analyzed by histogram with Y axis represents cell number of the 5000 live cells versus the X axis which is a reflection of relative FITC fluorescence with either antibodies to CLIP or CD74. […]
(§12) Harvested cells were stained using standard staining procedure that called for a 1:100 dilution of Fitc-anti-human CLIP or CD74 antibody (Fitc, Pharmingen, Cat #554647) or isotype control. […] Samples were acquired and analyzed on a Coulter Excel Flow Cytometer. […]
(In general: Flow cytometry measures light scatter and fluorescence of single cells or particles in a stream.)

Assay [7] relates to cell surface CLIP on Daudi cells. Nature of the assay: Cell surface CLIP by flow cytometry. The format is cell-based, human. As to conditions: 24 and 48 hours. Here is the method:
as §7, §8, §9, §10, §11, §12

In assay [8] the test system is cell surface CD74 on Raji cells. Nature of the assay: Cell surface CD74 by flow cytometry. It is filed as cell-based, human. As to conditions: 24 and 48 hours. Here is the method:
as §10
(§13) Data were analyzed by histogram with Y axis represents cell number of the 5000 live cells versus the X axis which is a reflection of relative FITC fluorescence with either antibodies to CLIP or CD74. The distance between the histogram from the isotype control staining versus the histogram reflecting the specific stain and is a measure of level of cell surface CLIP or CD74 when staining a population of live Raji or Daudi cells.
as §3
(§14) Protocol: Cells were plated into a 12 well plate with 3 mls total volume containing approximately 0.5×10^6/mL for Daudi cells and 0.5×10^6/mL for Raji cells. […]
(§15) Harvested cells were stained using standard staining procedure that called for a 1:100 dilution of Fitc-anti-human CLIP or CD74 antibody (Fitc, Pharmingen, Cat #554647) or isotype control. […] Samples were acquired and analyzed on a Coulter Excel Flow Cytometer.

The test system of assay [9] is cell surface CD74 on Daudi cells. Nature of the assay: Cell surface CD74 by flow cytometry. The format is cell-based, human. As to conditions: 24 and 48 hours. Here is the method:
as §10, §13, §3, §14, §15

No end group written: not given here.

Turning to `C=CC[C@@H]1/C=C(\C)C[C@H](C)C[C@H](OC)[C@H]2O[C@@](O)(C(=O)C(=O)N3CCCC[C@H]3C(=O)O[C@H](/C(C)=C/[C@@H]3CC[C@@H](O)[C@H](OC)C3)[C@H](C)[C@@H](O)CC1=O)[C@H](C)C[C@@H]2OC` [FK506, tacrolimus], the “immunosuppressive activity relative to cyclosporin” value in assay [1] is 10-100 times greater than cyclosporin.

Consider “Biotinylated FRIMAVLAS: biotinylated FRIMAVLAS (SEQ ID NO: 2), also referred to as MKN 5 (also: biotinylated, position not given here)”, for which the “binding of biotinylated peptide to cells” value in [2] (4 hours) is “bound with high affinity”; in assay [2] (24 hours) it was “Less binding”; in assay [3] (4 hours), “bound with high affinity”; in assay [3] (24 hours), “Less binding”. Further, the “cell surface expression of CD1d” value in assay [4] (4 hours) is listed as “marginally”; in assay [4] (24 hours), “slightly more”; in [5] (4 hours), “marginally”; in [5] (24 hours) it was “slightly more”.

Take “SGG GSK MRM ATP LLM QAL Y [MKN1 (bioCLIP)]”: the “cell surface CLIP level” value in assay [6] and in assay [7] was “alters” throughout. Moreover, the “cell surface CD74 level” value in assay [8] and in assay [9] was “alters” each time.
